What all share (format): in vivo
The subject of one experiment is BRSNS=Brassica napus. The experiment can be described thus: Drought stress test on crop plants, spray application, efficacy (EF) on Brassica napus. The note with it: percentage reduction in intensity of damage, mean of three results. The method, then: (§1) Seeds of monocotyledonous and dicotyledonous crop plants were placed in sandy loam in wood-fiber pots, covered with soil and cultivated in a greenhouse under good growth conditions. The test plants were treated at the early leaf stage (BBCH10-BBCH13). To ensure uniform water supply before commencement of stress, the potted plants were supplied with the maximum amount of water immediately beforehand by dam irrigation and, after application, transferred in plastic inserts in order to prevent subsequent, excessively rapid drying. The inventive compounds, formulated in the form of wettable powders (WP), wettable granules (WG), suspension concentrates (SC) or emulsion concentrates (EC), were sprayed onto the green parts of the plants as an aqueous suspension at an equivalent water application rate of 600 I/ha with addition of 0.2% wetting agent (agrotin). Substance application was followed immediately by stress treatment of the plants (cold or drought stress). For cold stress treatment, the plants are kept under the following controlled conditions: • “day”: 12 hours with illumination at 8° C. • “night”: 12 hours without illumination at 1° C.
(§2) Drought stress is induced by gradual drying out under the following conditions: • “day”: 14 hours with illumination at 26° C. • “night”: 10 hours without illumination at 18° C.
The duration of the respective stress phases was guided mainly by the state of the untreated, stressed control plants and thus varied from crop to crop. It was ended (by re-irrigating or transfer to a greenhouse with good growth conditions) as soon as irreversible damage was observed on the untreated, stressed control plants. In the case of dicotyledonous crops, for example oilseed rape and soya, the duration of the drought stress phase varied between 3 and 5 days, in the case of monocotyledonous crops, for example wheat, barley or corn, between 6 and 10 days. The duration of the cold stress phase varied between 12 and 14 days.
The end of the stress phase was followed by an approx. 5-7-day recovery phase, during which the plants were once again kept under good growth conditions in a greenhouse. In order to rule out any influence of the effects observed by any fungicidal action of the test compounds, it was additionally ensured that the tests proceed without fungal infection and without infection pressure.
After the recovery phase had ended, the intensities of damage were rated in visual comparison to untreated, unstressed controls of the same age (in the case of drought stress) or the same growth stage (in the case of cold stress). The intensity of damage was first assessed as a percentage (100%=plants have died, 0%=like control plants). These values were then used to calculate the efficacy of the test compounds (=percentage reduction in the intensity of damage as a result of substance application) by the following formula: […]
DVus: damage value of the untreated, stressed control
DVts: damage value of the plants treated with test compound
Tables A.1, A.2 and A.3 show the efficacies of selected inventive compounds of the formula (I) and of the formula (II) on different crop plants (BRSNS=Brassica napus (A.1;) TRZAS=Triticum aestivum (A.2); ZEAMX=Zea mays (A.3) under drought stress.
The values stated each represent mean values from three results of the same test.

In another experiment the test system is TRZAS=Triticum aestivum. The experiment can be described thus: Drought stress test on crop plants, spray application, efficacy (EF) on Triticum aestivum. The settings on record: dosage 25 g/ha, percentage reduction in intensity of damage, mean of three results. The method, then: Seeds of monocotyledonous and dicotyledonous crop plants were placed in sandy loam in wood-fiber pots, covered with soil and cultivated in a greenhouse under good growth conditions. The test plants were treated at the early leaf stage (BBCH10-BBCH13). To ensure uniform water supply before commencement of stress, the potted plants were supplied with the maximum amount of water immediately beforehand by dam irrigation and, after application, transferred in plastic inserts in order to prevent subsequent, excessively rapid drying. The inventive compounds, formulated in the form of wettable powders (WP), wettable granules (WG), suspension concentrates (SC) or emulsion concentrates (EC), were sprayed onto the green parts of the plants as an aqueous suspension at an equivalent water application rate of 600 I/ha with addition of 0.2% wetting agent (agrotin). Substance application was followed immediately by stress treatment of the plants (cold or drought stress). […]
(§3) After the recovery phase had ended, the intensities of damage were rated in visual comparison to untreated, unstressed controls of the same age (in the case of drought stress) or the same growth stage (in the case of cold stress). The intensity of damage was first assessed as a percentage (100%=plants have died, 0%=like control plants). […]

Another experiment deals with ZEAMX=Zea mays. The experiment can be described thus: Drought stress test on crop plants, spray application, efficacy (EF) on Zea mays. The note with it: percentage reduction in intensity of damage, mean of three results. The method, then: as §1, §2
The duration of the respective stress phases was guided mainly by the state of the untreated, stressed control plants and thus varied from crop to crop. It was ended (by re-irrigating or transfer to a greenhouse with good growth conditions) as soon as irreversible damage was observed on the untreated, stressed control plants. […]
as §3

Turning to `CCOP(=O)(c1ccccc1)C1(C#N)CC1` (stereo not shown) [Compound 2-2, ethyl (1-cyanocyclopropyl)phenylphosphinate], the “EF (BRSNS)” value in the experiment with BRSNS=Brassica napus (dosage 25 g/ha) is over 5%. Moreover, the “EF (TRZAS)” value in the experiment with TRZAS=Triticum aestivum is over 5%.

On to `CCOP(=O)(c1cccc(C)c1)C1(C#N)CC1` (stereo not shown) [Compound 2-16], for which the “EF (BRSNS)” value in the experiment on BRSNS=Brassica napus (dosage 250 g/ha) was over 5%.

For `CCOP(=O)(c1ccc(C)cc1)C1(C#N)CC1` (stereo not shown) [Compound 2-17], in the experiment on BRSNS=Brassica napus (dosage 250 g/ha), the “EF (BRSNS)” value is given as over 5%.

As for `CCOP(=O)(c1ccccc1OC)C1(C#N)CC1` (stereo not shown) [Compound 2-18], the “EF (BRSNS)” value with BRSNS=Brassica napus (dosage 25 g/ha) is given as over 5%.

As for `CCOP(=O)(c1cccc(OC)c1)C1(C#N)CC1` (stereo not shown) [Compound 2-19], the “EF (BRSNS)” value with BRSNS=Brassica napus (dosage 25 g/ha) is over 5%.

Consider `CCOP(=O)(c1cccc(C(=O)O)c1)C1(C#N)CC1` (stereo not shown) [Compound 2-34], for which, in the experiment on BRSNS=Brassica napus (dosage 25 g/ha), the “EF (BRSNS)” value is given as over 5%.

Regarding `CCOC(=O)c1cccc(P(=O)(OCC)C2(C#N)CC2)c1` (stereo not shown) [Compound 2-37], in the experiment with BRSNS=Brassica napus (dosage 25 g/ha), the “EF (BRSNS)” value was over 5%.

Take `CCOP(=O)(c1cc(Cl)cc(Cl)c1)C1(C#N)CC1` (stereo not shown) [Compound 2-111]: the “EF (BRSNS)” value with BRSNS=Brassica napus (dosage 25 g/ha) was over 5%.

As for `CCCOP(=O)(c1ccccc1)C1(C#N)CC1` (stereo not shown) [Compound 2-130], the “EF (BRSNS)” value in the experiment with BRSNS=Brassica napus (dosage 25 g/ha) is reported as over 5%. Besides, the “EF (ZEAMX)” value in the experiment with ZEAMX=Zea mays (dosage 25 g/ha) was over 5%.

Take `CC(C)COP(=O)(c1ccccc1)C1(C#N)CC1` (stereo not shown) [Compound 2-135]: in the experiment on BRSNS=Brassica napus (dosage 25 g/ha), the “EF (BRSNS)” value was over 5%. The “EF (TRZAS)” value with TRZAS=Triticum aestivum is over 5%.

As for `N#CC1(P(=O)(OC2CCCCC2)c2ccccc2)CC1` (stereo not shown) [Compound 2-142], the “EF (BRSNS)” value in the experiment on BRSNS=Brassica napus (dosage 25 g/ha) is recorded as over 5%.

In the case of `N#CC1(P(=O)(OCc2ccccc2)c2ccccc2)CC1` (stereo not shown) [Compound 2-155], the “EF (BRSNS)” value in the experiment with BRSNS=Brassica napus (dosage 25 g/ha) is given as over 5%. Besides, the “EF (ZEAMX)” value with ZEAMX=Zea mays (dosage 25 g/ha) is over 5%.

Turning to `CCCOP(=O)(c1ccccc1F)C1(C#N)CC1` (stereo not shown) [Compound 2-158], the “EF (BRSNS)” value in the experiment on BRSNS=Brassica napus (dosage 25 g/ha) is listed as over 5%. The “EF (ZEAMX)” value in the experiment on ZEAMX=Zea mays (dosage 250 g/ha) is recorded as over 5%.

As for `CCCOP(=O)(c1ccccc1Cl)C1(C#N)CC1` (stereo not shown) [Compound 2-159], the “EF (BRSNS)” value in the experiment with BRSNS=Brassica napus (dosage 25 g/ha) is listed as over 5%.

The values are drawn from US8912124B2, “Use of derivatives of (1-cyanocyclopropyl)phenylphosphinic acid, esters thereof and/or salts thereof for enhancing tolerance in plants to abiotic stress” (Bayer Cropscience AG, priority 2010, dated 2014).
